Laboratory results: PubChem BioAssay AID226 (DTP/NCI, 2004)
“And” between values parts separate entries of the source, which are not always exact repeats. Identical values can stand only once. Toxic doses and inconclusive results are not listed.

Test system: B6C3F1 mice, intracerebral ependymoblastoma, median survival T/C
Assay: NCI In Vivo Anticancer Drug Screen. Data for tumor model Ependymoblastoma (intracerebral) in B6C3F1 mice
Conditions: endpoint: median survival time, higher = longer survival
Protocol: The antitumor activity of compounds was measured in mice bearing transplantable tumors. Survival or tumor size were measured and the results are expressed as the measurement made in the treated group (T) divided by the measurement made in the vehicle treated control group (C). The tumor model used in this assay is Ependymoblastoma (intracerebral) in B6C3F1 mice

[1] = dose: 16.0 mg/kg/injection, schedule: Q01DX005 (ip), vehicle: Klucel (hydroxypropylcellulose) (HPC)
[2] = dose: 32.0 mg/kg/injection, schedule: Q01DX005 (ip), vehicle: saline
[3] = dose: 64.0 mg/kg/injection, schedule: Q01DX005 (ip), vehicle: Klucel (hydroxypropylcellulose) (HPC)
[4] = dose: 64.0 mg/kg/injection, schedule: Q01DX005 (ip), vehicle: saline with Tween-80
[5] = dose: 64.0 mg/kg/injection, schedule: Q01DX005 (ip), vehicle: saline
[6] = dose: 128.0 mg/kg/injection, schedule: Q01DX005 (ip), vehicle: saline
[7] = dose: 256.0 mg/kg/injection, schedule: Q01DX005 (ip), vehicle: saline
[8] = dose: 12.0 mg/kg/injection, schedule: Q01DX005 (ip), vehicle: saline with Tween-80

## C[C@@H](CN1CC(=O)NC(=O)C1)N1CC(=O)NC(=O)C1
dose: 4.0 mg/kg/injection, schedule: Q01DX005 (ip), vehicle: Klucel (hydroxypropylcellulose) (HPC)
  T/C: 112 % of control and 120 % of control
dose: 4.0 mg/kg/injection, schedule: Q01DX005 (ip), vehicle: saline with Tween-80
  T/C: 116 % of control and 117 % of control
dose: 4.0 mg/kg/injection, schedule: Q01DX005 (ip), vehicle: water
  T/C: 102 % of control
dose: 8.0 mg/kg/injection, schedule: Q01DX005 (ip), vehicle: saline with Tween-80
  T/C: 108 % of control
[1]
  T/C: 108 % of control and 111 % of control
dose: 16.0 mg/kg/injection, schedule: Q01DX005 (ip), vehicle: saline with Tween-80
  T/C: 114 % of control and 118 % of control
dose: 16.0 mg/kg/injection, schedule: Q01DX005 (ip), vehicle: water
  T/C: 105 % of control
[2]
  T/C: 102 % of control and 114 % of control
dose: 32.0 mg/kg/injection, schedule: Q01DX005 (oral), vehicle: saline
  T/C: 109 % of control
[3]
  T/C: 107 % of control and 115 % of control
[4]
  T/C: 114 % of control
[5]
  T/C: 123 % of control
dose: 64.0 mg/kg/injection, schedule: Q01DX005 (ip), vehicle: water
  T/C: 108 % of control
[6]
  T/C: 120 % of control
dose: 128.0 mg/kg/injection, schedule: Q#A X002 (ip), vehicle: saline
  T/C: 103 % of control
dose: 256.0 mg/kg/injection, schedule: Q01DX001 (ip), vehicle: saline
  T/C: 107 % of control and 111 % of control and 113 % of control
dose: 256.0 mg/kg/injection, schedule: Q01DX001 (oral), vehicle: saline
  T/C: 109 % of control and 123 % of control and 124 % of control
dose: 256.0 mg/kg/injection, schedule: Q01DX005 (ip), vehicle: Klucel (hydroxypropylcellulose) (HPC)
  T/C: 112 % of control and 122 % of control
[7]
  T/C: 120 % of control and 122 % of control
dose: 256.0 mg/kg/injection, schedule: Q#A X002 (ip), vehicle: saline
  T/C: 113 % of control
dose: 512.0 mg/kg/injection, schedule: Q01DX001 (ip), vehicle: saline
  T/C: 109 % of control and 118 % of control
dose: 512.0 mg/kg/injection, schedule: Q01DX001 (oral), vehicle: saline
  T/C: 119 % of control and 121 % of control
dose: 512.0 mg/kg/injection, schedule: Q#A X002 (ip), vehicle: saline
  T/C: 121 % of control
dose: 1024.0 mg/kg/injection, schedule: Q01DX001 (ip), vehicle: saline
  T/C: 114 % of control and 121 % of control
dose: 1024.0 mg/kg/injection, schedule: Q01DX001 (oral), vehicle: saline
  T/C: 119 % of control
dose: 1024.0 mg/kg/injection, schedule: Q#A X002 (ip), vehicle: saline
  T/C: 121 % of control
dose: 2048.0 mg/kg/injection, schedule: Q01DX001 (oral), vehicle: saline
  T/C: 102 % of control and 121 % of control

## COc1ccc2c(c1)CCC(c1ccccc1)=C2c1ccc(OCCN2CCCC2)cc1
dose: 8.0 mg/kg/injection, schedule: Q01DX005 (ip), vehicle: Klucel (hydroxypropylcellulose) (HPC)
  T/C: 106 % of control
[8]
  T/C: 108 % of control
[1]
  T/C: 106 % of control
dose: 24.0 mg/kg/injection, schedule: Q01DX005 (ip), vehicle: saline with Tween-80
  T/C: 110 % of control
dose: 32.0 mg/kg/injection, schedule: Q01DX005 (ip), vehicle: Klucel (hydroxypropylcellulose) (HPC)
  T/C: 110 % of control
dose: 48.0 mg/kg/injection, schedule: Q01DX005 (ip), vehicle: saline with Tween-80
  T/C: 104 % of control
[3]
  T/C: 101 % of control
dose: 96.0 mg/kg/injection, schedule: Q01DX005 (ip), vehicle: saline with Tween-80
  T/C: 107 % of control

## C#CCN(C)/N=N/c1nc[nH]c1C(N)=O
dose: 32.0 mg/kg/injection, schedule: Q01DX005 (ip), vehicle: saline with Tween-80
  T/C: 150 % of control
dose: 128.0 mg/kg/injection, schedule: Q01DX005 (ip), vehicle: saline with Tween-80
  T/C: 157 % of control

## CC(C)[C@](O)(C(=O)OCC1=CC[N+]2([O-])CC[C@@H](O)[C@@H]12)[C@H](C)O (stereo not given in full)
[2]
  T/C: 104 % of control
[5]
  T/C: 98 % of control and 101 % of control
[6]
  T/C: 95 % of control and 100 % of control
[7]
  T/C: 103 % of control and 108 % of control
dose: 512.0 mg/kg/injection, schedule: Q01DX005 (ip), vehicle: saline
  T/C: 94 % of control and 117 % of control

## Nc1ccn(C2OC(COC(=O)C34CC5CC(CC(C5)C3)C4)C(O)C2O)c(=O)n1 (stereo not given)
dose: 6.25 mg/kg/injection, schedule: Q01DX005 (ip), vehicle: Klucel (hydroxypropylcellulose) (HPC)
  T/C: 98 % of control and 105 % of control
dose: 12.5 mg/kg/injection, schedule: Q01DX005 (ip), vehicle: Klucel (hydroxypropylcellulose) (HPC)
  T/C: 100 % of control and 105 % of control
dose: 25.0 mg/kg/injection, schedule: Q01DX005 (ip), vehicle: Klucel (hydroxypropylcellulose) (HPC)
  T/C: 104 % of control and 116 % of control
dose: 50.0 mg/kg/injection, schedule: Q01DX005 (ip), vehicle: Klucel (hydroxypropylcellulose) (HPC)
  T/C: 109 % of control

## Nc1nncs1
dose: 6.25 mg/kg/injection, schedule: Q01DX009 (ip), vehicle: saline
  T/C: 91 % of control
dose: 12.5 mg/kg/injection, schedule: Q01DX009 (ip), vehicle: saline
  T/C: 96 % of control
dose: 25.0 mg/kg/injection, schedule: Q01DX009 (ip), vehicle: saline
  T/C: 102 % of control
dose: 50.0 mg/kg/injection, schedule: Q01DX009 (ip), vehicle: saline
  T/C: 115 % of control
[4]
  T/C: 110 % of control
dose: 100.0 mg/kg/injection, schedule: Q01DX009 (ip), vehicle: saline
  T/C: 107 % of control

## CC(=O)OC1COC(NC(=O)N(CCCl)N=O)C(OC(C)=O)C1OC(C)=O (stereo not given)
dose: 0.18 mg/kg/injection, schedule: Q01DX009 (ip), vehicle: saline with Tween-80
  T/C: 103 % of control
dose: 0.38 mg/kg/injection, schedule: Q01DX009 (ip), vehicle: saline with Tween-80
  T/C: 117 % of control
dose: 0.75 mg/kg/injection, schedule: Q01DX005 (ip), vehicle: saline with Tween-80
  T/C: 113 % of control
dose: 1.5 mg/kg/injection, schedule: Q01DX005 (ip), vehicle: saline with Tween-80
  T/C: 96 % of control and 121 % of control
dose: 3.0 mg/kg/injection, schedule: Q01DX005 (ip), vehicle: saline with Tween-80
  T/C: 91 % of control
dose: 3.0 mg/kg/injection, schedule: Q01DX009 (ip), vehicle: saline with Tween-80
  T/C: 178 % of control
dose: 6.0 mg/kg/injection, schedule: Q01DX005 (ip), vehicle: saline with Tween-80
  T/C: 107 % of control
dose: 6.0 mg/kg/injection, schedule: Q01DX009 (ip), vehicle: saline with Tween-80
  T/C: 165 % of control
[8]
  T/C: 158 % of control

## CC([NH-])C[NH-].[Cl][Pt+2][Cl] (stereo not given)
dose: 2.0 mg/kg/injection, schedule: Q01DX005 (ip), vehicle: dextrose
  T/C: 94 % of control

## COc1cc2c(cc1O)N=C[C@@H]1CCC(O)N1C2=O (mixture of isomers)
dose: 2.0 mg/kg/injection, schedule: Q01DX005 (ip), vehicle: distilled water + Tween-80
  T/C: 95 % of control
dose: 4.0 mg/kg/injection, schedule: Q01DX005 (ip), vehicle: distilled water + Tween-80
  T/C: 92 % of control
dose: 8.0 mg/kg/injection, schedule: Q01DX005 (ip), vehicle: distilled water + Tween-80
  T/C: 87 % of control

## CCOC(=O)CC(SP(=S)(OC)OC)C(=O)OCC (stereo not given)
dose: 25.0 mg/kg/injection, schedule: Q01DX005 (ip), vehicle: suspension in saline
  T/C: 100 % of control
dose: 50.0 mg/kg/injection, schedule: Q01DX005 (ip), vehicle: suspension in saline
  T/C: 124 % of control
dose: 100.0 mg/kg/injection, schedule: Q01DX005 (ip), vehicle: suspension in saline
  T/C: 101 % of control
dose: 200.0 mg/kg/injection, schedule: Q01DX005 (ip), vehicle: suspension in saline
  T/C: 105 % of control

## C[n+]1c2ccccc2nc2c(N)cc(N)cc21
dose: 4.0 mg/kg/injection, schedule: Q01DX005 (ip), vehicle: saline
  T/C: 100 % of control and 101 % of control
dose: 8.0 mg/kg/injection, schedule: Q01DX005 (ip), vehicle: saline
  T/C: 101 % of control and 102 % of control
dose: 16.0 mg/kg/injection, schedule: Q01DX005 (ip), vehicle: saline
  T/C: 103 % of control and 108 % of control
[2]
  T/C: 103 % of control and 114 % of control

## CN(Cc1cnc2nc(N)nc(N)c2n1)c1ccc(C(=O)N[C@@H](CCC(=O)O)C(=O)O)cc1
dose: 4.0 mg/kg/injection, schedule: Q01DX009 (ip), vehicle: saline with Tween-80
  T/C: 118 % of control
dose: 4.0 mg/kg/injection, schedule: Q04DX003 (ip), vehicle: saline with Tween-80
  T/C: 118 % of control
dose: 8.0 mg/kg/injection, schedule: Q01DX009 (ip), vehicle: saline with Tween-80
  T/C: 106 % of control
dose: 8.0 mg/kg/injection, schedule: Q04DX003 (ip), vehicle: saline with Tween-80
  T/C: 110 % of control
dose: 16.0 mg/kg/injection, schedule: Q01DX009 (ip), vehicle: saline with Tween-80
  T/C: 111 % of control
dose: 16.0 mg/kg/injection, schedule: Q04DX003 (ip), vehicle: saline with Tween-80
  T/C: 98 % of control
dose: 32.0 mg/kg/injection, schedule: Q01DX009 (ip), vehicle: saline with Tween-80
  T/C: 109 % of control
